Where two headings read alike, the source gives them in different places.
Columns and labels:
[1] = Precipitation on dilution into water or saline; format: physicochemical
[2] = AS in propylene glycol and ethanol (4/1), pH 11.0; in 2 hours
Experimental: The sample was then vortexed, filtered, after which it was analyzed by HPLC.

[3] = Solubility in basic solutions without cyclodextrin (HPLC); details: Sample 1: 20 mg AS in 1 mL, 16.54 mM L-Arg; pH 10.71 with L-Arg (L-Arg alone)

Row | Structure (SMILES) | precipitation on dilution ([1]; 100% ethanol solution, diluted 1:1 with saline) | precipitation on dilution ([1]; 100% propylene glycol solution, diluted 1:1 with saline) | degradation [2] | resulting concentration [3] [mg/mL] | precipitation on dilution ([1]; Example 12 PG/ethanol/water sample adjusted to pH 7.5, diluted 1:1 into water) | precipitation on dilution ([1]; Example 12 PG/ethanol/water sample adjusted to pH 8.0, diluted 1:1 into water) | precipitation on dilution ([1]; anything less than 40% propylene glycol and 10% ethanol, diluted with normal saline) | precipitation on dilution ([1]; prepared in non-aqueous co-solvents and then diluted into saline) | precipitation on dilution ([1]; propylene glycol and ethanol (4/1), pH 11.0, diluted 1:3 in saline) | degradation (control solution of the same mixture (20% HPβ-CD, pH 8.47), 40° C. for 1 month) [%] | degradation (solubilized with HPβ-CD (20%, pH 8.47), lyophilized with manifold freeze dryer, 40° C. for 1 month) [%] | degradation (solubilized with HPβ-CD, diluted 1:1 into 8% sucrose, lyophilized with shelf freeze dryer, storage 1 month at 40° C.)
1 | CC(C)c1c(C(=O)Nc2ccccc2)c(-c2ccccc2)c(-c2ccc(F)cc2)n1CC[C@@H](O)C[C@@H](O)CC(=O)O [AS, Atorvastatin free acid] | precipitated | precipitated | approximately 50% | 1.91 |  |  |  |  |  |  |  | 
2 | CC(C)c1c(C(=O)Nc2ccccc2)c(-c2ccccc2)c(-c2ccc(F)cc2)n1CC[C@@H](O)C[C@@H](O)CC(=O)O [AS—Ca, atorvastatin calcium trihydrate] |  |  |  |  | precipitated | precipitated | precipitation | precipitate | precipitated | ~15.5 | ~3.5 | less than 0.1%

Source: patent publication US9820966B2, “Stabilized statin formulations” (Cumberland Pharmaceuticals Inc., priority 2010, dated 2017)
